Assay results from patent US20240100190A1, “Brain Disease Therapy Enhancing Inhibition of GABAergic Neurons” (priority 2022, published 2024).

Key:
GABAergic neurons [1] = test: Current-clamp cortical slice recordings with CNO application; type: cell-based, mice; details: after CNO, hM3Dq-expressing neurons in cortical slices, 13 neurons
Procedure: Briefly, anesthetized mice receive transcardial perfusion withN-methyl-D-glucamine (NMDG)-aCSF (92 mM NMDG, 2.5 mM KCl, 1.2 mM NaH2PO4, 30 mM NaHCO3, 20 mM N-2-Hydroxyethylpiperazine-N-2-Ethane Sulfonic Acid (HEPES), 25 mM glucose, 2 mM thiourea, 5 mM Na-ascorbate, 3 mM Na-pyruvate, 0.5 mM CaCl2·4H2O, and 10 mM MgSO4·7H2O; adjusted pH to 7.3-7.4 with concentrated HCl), and the brain is gently and rapidly extracted from the skull and then cut into 300 μm-thick sections with a vibratome (Leica VT1200S). […]
Brain slices are then bathed in room-temperature recording aCSF (124 mM NaCl, 2.5 mM KCl, 1.2 mM NaH2PO4, 24 mM NaHCO3, 5 mM HEPES, 12.5 mM glucose, 2 mM CaCl2·4H2O and 2 mM MgSO4·7H2O, ˜25° C.) and whole-cell recordings are made at the auditory cortex using Multiclamp 700B amplifier (Molecular Devices, www.moleculardevices.com, Menlo Park, California, USA) and Digital 1440A digitizer (Molecular Devices, www.moleculardevices.com, Menlo Park, California, USA). […] 0.3 mL CNO (0.2 mg/mL) is gently infused into the recording chamber (5-7 mL recording aCSF) and recorded for at least 20 minutes. The firing rate is analyzed with Clampfit 11.2 (Molecular Devices, www.moleculardevices.com, Menlo Park, California, USA). […]

[2] = Spontaneous locomotion detection (active time); details: after CNO administration in two groups
Procedure: The animals are housed separately under a standard 12-h light/dark cycle and stable temperature (23-25° C.) with full access to food and water.
A summation of each pixel value for the difference is used to decide whether the animal moves between these three frames. […] Animal movements are analyzed by the program. The active time for each mouse is determined every 24 h.
The behavioral effects after CNO intervention in the two groups are evaluated.

GABAergic neurons [3] = test: Laser pulse induced IPSC recording in cortex; type: cell-based, Vgat-Cre mice; details: hM3Dq and DIO-ChrimsonR-mCherry injected cortex; laser 0.1 Hz; baseline 100.22±0.66%
Text: FIG. 4A is a diagram showing the hM3Dq and DIO-ChrimsonR-mCherry injection into the cortex of Vgat-Cre mice.

GABAergic neurons [4] = test: CNO administration and in vivo recordings in the auditory cortex; design: species or system mice
Procedure: In vivo recordings are performed in the ACs of mice using the same surgery setup described above.
For each time point, an average of six evoked responses is used. The inventors average the LFP amplitudes every six trials (MATLAB), which represents a 1-min recording. The representative waveforms are also plotted with MATLAB (MathWorks.Inc, Natick, US; https://ww2.mathworks.cn/). […] The results are exported into Excel for offline analysis and plotting.
C57BL/6J male mice (6-7 weeks old) are anesthetized with pentobarbital (100 mg/kg) supplemented with atropine (0.05 mg/kg, Sigma). The anesthetized mice are head-fixed using a stereotaxic device (RWD Life Science; Shen Zhen, China; https://www.rwdstco.com/). […] The PHP.eB serotype virus, which readily crosses the BBB for brain transduction, is produced using standard production methods. A glass pipette tip (at an angle of […] to about 45°) is used to slowly touch the surface of the transverse venous sinus with the injection pump running at a slow speed (100 nL/min). After the glass pipette tip penetrates the vessel, the injection speed is increased to 1,000 nL/min. A total of 50 μL of the virus (1.5E12 VGs/kg of body weight, VG, vector genome) is injected.
To verify the CNO administration can suppress the response to the AS through the potentiation of inhibition, electrophysiological recordings of neuronal firing and LFP response to the AS before and after the CNO application are performed.

[5] = hM3Dq mice, n=30 recording sites

In the case of `C[N+]1([O-])CCN(C2=Nc3cc(Cl)ccc3Nc3ccccc32)CC1` [CNO, clozapine-N-oxide], the “mean highest firing rate in bursts” value (GABAergic neurons [1]) is reported as 33.24±2.46 Hz, the “side effects (astrocytic reactivity and locomotion)” value [2] is reported as “not detected” and the “normalized IPSCs amplitude 35-40 min after CNO” value (GABAergic neurons [3]) is reported as 250.62±6.46%. For the same molecule, the “duration of activation of the new units after the CNO application” value (GABAergic neurons [4]; hM3Dq mice) was 25 min, the “number of spike-sorted units after the CNO injection” value (GABAergic neurons [4]; [5]) was 4.30±0.27 and the “number of spike-sorted units before CNO injection” value (GABAergic neurons [4]; [5]) was 2.73±0.27. For the same molecule, the “maximum firing frequency during the bursts of the new units after CNO application” value (GABAergic neurons [4]; n=44 units, mean) was 32.63±3.30 Hz.
